Measured values published in PubChem BioAssay (NCI).
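Method: 48-hour compound exposure of cells in 96-well plates, five concentrations, linear interpolation of endpoints. The concentration for 50% growth inhibition is given as GI50. TGI: concentration producing complete growth inhibition.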

Assays:
Assay in all cases: NCI anticancer screen, dose series, 48 h
IGROV1 ovarian = tested on: IGROV1 ovarian
MDA-MB-231 breast = tested on: MDA-MB-231 breast
A498 renal = tested on: A498 renal
SK-MEL-28 melanoma = tested on: SK-MEL-28 melanoma
BT-549 breast = tested on: BT-549 breast
U251 CNS = tested on: U251 CNS
HOP-62 NSCLC = tested on: HOP-62 NSCLC
M14 melanoma = tested on: M14 melanoma
OVCAR-5 ovarian = tested on: OVCAR-5 ovarian
HL-60(TB) leukemia = tested on: HL-60(TB) leukemia
OVCAR-3 ovarian = tested on: OVCAR-3 ovarian
KM12 colon = tested on: KM12 colon
MDA-MB-435 = tested on: MDA-MB-435
NCI-H522 lung = tested on: NCI-H522 lung
NCI-H23 lung = tested on: NCI-H23 lung
EKVX NSCLC = tested on: EKVX NSCLC
OVCAR-4 ovarian = tested on: OVCAR-4 ovarian
SW-620 colon = tested on: SW-620 colon
SK-OV-3 ovarian = tested on: SK-OV-3 ovarian
A549 NSCLC = tested on: A549 NSCLC
ACHN renal = tested on: ACHN renal
HCT-15 colon = tested on: HCT-15 colon
COLO 205 colon = tested on: COLO 205 colon
LOX IMVI melanoma = tested on: LOX IMVI melanoma
HCT-116 colon = tested on: HCT-116 colon
TK-10 renal = tested on: TK-10 renal
MALME-3M melanoma = tested on: MALME-3M melanoma
SK-MEL-5 melanoma = tested on: SK-MEL-5 melanoma
HT29 colon = tested on: HT29 colon
CAKI-1 renal = tested on: CAKI-1 renal
UO-31 renal = tested on: UO-31 renal
T-47D breast = tested on: T-47D breast
OVCAR-8 ovarian = tested on: OVCAR-8 ovarian
HCC-2998 colon = tested on: HCC-2998 colon
HOP-92 NSCLC = tested on: HOP-92 NSCLC
UACC-257 melanoma = tested on: UACC-257 melanoma
SF-539 CNS = tested on: SF-539 CNS
PC-3 prostate = tested on: PC-3 prostate
SK-MEL-2 melanoma = tested on: SK-MEL-2 melanoma
DU-145 prostate = tested on: DU-145 prostate
SF-295 CNS = tested on: SF-295 CNS
SNB-19 CNS = tested on: SNB-19 CNS
SR leukemia = tested on: SR leukemia
SNB-75 CNS = tested on: SNB-75 CNS
RPMI-8226 leukemia = tested on: RPMI-8226 leukemia
SF-268 CNS = tested on: SF-268 CNS
HS 578T breast = tested on: HS 578T breast
UACC-62 melanoma = tested on: UACC-62 melanoma
K-562 leukemia = tested on: K-562 leukemia
RXF 393 renal = tested on: RXF 393 renal
786-0 renal = tested on: 786-0 renal
NCI-H226 lung = tested on: NCI-H226 lung
MCF7 breast = tested on: MCF7 breast
SN12C renal = tested on: SN12C renal
NCI/ADR-RES ovarian = tested on: NCI/ADR-RES ovarian
MOLT-4 leukemia = tested on: MOLT-4 leukemia
NCI-H460 lung = tested on: NCI-H460 lung
CCRF-CEM leukemia = tested on: CCRF-CEM leukemia

`Cc1cc2c(F)c(Oc3ncnn4cc(OC[C@@H](C)OC(=O)[C@H](C)N)c(C)c34)ccc2[nH]1` showed a GI50 (IGROV1 ovarian) of 9.1 µM, a TGI (IGROV1 ovarian) of 23.4 µM and a GI50 (MDA-MB-231 breast) of 14.1 µM. For the same molecule, the TGI (MDA-MB-231 breast) was 29.7 µM, the GI50 (A498 renal) was 4.55 µM and the TGI (A498 renal) was 17.3 µM. The GI50 (SK-MEL-28 melanoma) was 12.9 µM, the TGI (SK-MEL-28 melanoma) was 25.7 µM and the GI50 (BT-549 breast) was 8.43 µM. The TGI (BT-549 breast) was 22 µM, the GI50 (U251 CNS) was 4.22 µM and the TGI (U251 CNS) was 18.5 µM. The GI50 (HOP-62 NSCLC) was 10.3 µM, the TGI (HOP-62 NSCLC) was 26.9 µM and the GI50 (M14 melanoma) was 12.3 µM. For the same molecule, the TGI (M14 melanoma) was 25.7 µM, the GI50 (OVCAR-5 ovarian) was 14.9 µM and the TGI (OVCAR-5 ovarian) was 29.2 µM. For the same molecule, the GI50 (HL-60(TB) leukemia) was 7.2 µM, the TGI (HL-60(TB) leukemia) was 26.3 µM and the GI50 (OVCAR-3 ovarian) was 10.7 µM. The TGI (OVCAR-3 ovarian) was 23.7 µM, the GI50 (KM12 colon) was 7.68 µM and the TGI (KM12 colon) was 20.5 µM. The GI50 (MDA-MB-435) was 11.3 µM, the TGI (MDA-MB-435) was 23.8 µM and the GI50 (NCI-H522 lung) was 11.1 µM. It also gave a TGI (NCI-H522 lung) of 24.7 µM, a GI50 (NCI-H23 lung) of 11.8 µM and a TGI (NCI-H23 lung) of 25.9 µM. For the same molecule, the GI50 (EKVX NSCLC) was 13.5 µM, the TGI (EKVX NSCLC) was 26.9 µM and the GI50 (OVCAR-4 ovarian) was 11.3 µM. The TGI (OVCAR-4 ovarian) was 23.8 µM, the GI50 (SW-620 colon) was 6.33 µM and the TGI (SW-620 colon) was 19.7 µM. For the same molecule, the GI50 (SK-OV-3 ovarian) was 12.4 µM, the TGI (SK-OV-3 ovarian) was 26.7 µM and the GI50 (A549 NSCLC) was 8.86 µM. For the same molecule, the TGI (A549 NSCLC) was 23.3 µM, the GI50 (ACHN renal) was 8.85 µM and the TGI (ACHN renal) was 21.5 µM. It also gave a GI50 (HCT-15 colon) of 882 nM, a TGI (HCT-15 colon) of 14 µM and a GI50 (COLO 205 colon) of 10.7 µM. The TGI (COLO 205 colon) was 25.1 µM, the GI50 (LOX IMVI melanoma) was 3.75 µM and the TGI (LOX IMVI melanoma) was 18.1 µM. It also gave a GI50 (HCT-116 colon) of 3.38 µM, a TGI (HCT-116 colon) of 18.9 µM and a GI50 (TK-10 renal) of 13.5 µM. The TGI (TK-10 renal) was 27.1 µM, the GI50 (MALME-3M melanoma) was 11.7 µM and the TGI (MALME-3M melanoma) was 24.9 µM. It also gave a GI50 (SK-MEL-5 melanoma) of 3.26 µM, a TGI (SK-MEL-5 melanoma) of 15.1 µM and a GI50 (HT29 colon) of 5.73 µM. For the same molecule, the TGI (HT29 colon) was 18.9 µM, the GI50 (CAKI-1 renal) was 7.21 µM and the TGI (CAKI-1 renal) was 21.5 µM. It also gave a GI50 (UO-31 renal) of 7.58 µM, a TGI (UO-31 renal) of 21.4 µM and a GI50 (T-47D breast) of 13.4 µM. It also gave a TGI (T-47D breast) of 31.7 µM, a GI50 (OVCAR-8 ovarian) of 8.96 µM and a TGI (OVCAR-8 ovarian) of 23.1 µM. It also gave a GI50 (HCC-2998 colon) of 13.5 µM, a TGI (HCC-2998 colon) of 27.6 µM and a GI50 (HOP-92 NSCLC) of 16.6 µM. For the same molecule, the TGI (HOP-92 NSCLC) was 33.5 µM, the GI50 (UACC-257 melanoma) was 14.6 µM and the TGI (UACC-257 melanoma) was 28.1 µM. It also gave a GI50 (SF-539 CNS) of 4.81 µM, a TGI (SF-539 CNS) of 17.3 µM and a GI50 (PC-3 prostate) of 5.28 µM. For the same molecule, the TGI (PC-3 prostate) was 23.9 µM, the GI50 (SK-MEL-2 melanoma) was 19.9 µM and the TGI (SK-MEL-2 melanoma) was 35.3 µM. The GI50 (DU-145 prostate) was 11.7 µM, the TGI (DU-145 prostate) was 24.2 µM and the GI50 (SF-295 CNS) was 7.87 µM. The TGI (SF-295 CNS) was 21.3 µM, the GI50 (SNB-19 CNS) was 9.99 µM and the TGI (SNB-19 CNS) was 23 µM. The GI50 (SR leukemia) was 2990 nM, the TGI (SR leukemia) was 16 µM and the GI50 (SNB-75 CNS) was 9.42 µM. It also gave a TGI (SNB-75 CNS) of 24.6 µM, a GI50 (RPMI-8226 leukemia) of 5.94 µM and a TGI (RPMI-8226 leukemia) of 23.7 µM. It also gave a GI50 (SF-268 CNS) of 8 µM, a TGI (SF-268 CNS) of 23.5 µM and a GI50 (HS 578T breast) of 9.36 µM. For the same molecule, the TGI (HS 578T breast) was 44.2 µM, the GI50 (UACC-62 melanoma) was 8.67 µM and the TGI (UACC-62 melanoma) was 21.9 µM. The GI50 (K-562 leukemia) was 3.83 µM, the TGI (K-562 leukemia) was 20.2 µM and the GI50 (RXF 393 renal) was 8.4 µM. For the same molecule, the TGI (RXF 393 renal) was 22.5 µM, the GI50 (786-0 renal) was 12 µM and the TGI (786-0 renal) was 26.9 µM. For the same molecule, the GI50 (NCI-H226 lung) was 7.75 µM, the TGI (NCI-H226 lung) was 24.8 µM and the GI50 (MCF7 breast) was 8.58 µM. The TGI (MCF7 breast) was 24 µM, the GI50 (SN12C renal) was 12.6 µM and the TGI (SN12C renal) was 26.2 µM. The GI50 (NCI/ADR-RES ovarian) was 9.79 µM, the TGI (NCI/ADR-RES ovarian) was 30.2 µM and the GI50 (MOLT-4 leukemia) was 7.25 µM. It also gave a TGI (MOLT-4 leukemia) of 23.5 µM, a GI50 (NCI-H460 lung) of 2100 nM and a TGI (NCI-H460 lung) of 13.8 µM. For the same molecule, the GI50 (CCRF-CEM leukemia) was 5.96 µM and the TGI (CCRF-CEM leukemia) was 23.1 µM.
